Assay results reported in patent US6984399B2 (Lek Pharmaceuticals d.d., priority 1999, dated 2006).

Legend:
[1] = particle size and BET specific surface area of lovastatin crystals; assay type: physicochemical; conditions: for d(0.1) / d(0.5) / d(0.9): particle size; for d(0.9): 90% (volume) of particles below; for Spec. Pov.: specific surface area, BET method
[2] = dissolution of lovastatin samples of varying particle size in water (Table I); assay type: physicochemical; conditions: suspension in 0.1% Tween 80 diluted 100 times
Excerpt: At first we have prepared three samples of lovastatin* with varying particle size and compared dissolution** of those samples in water (Table I).

[3] = oral, cited from earlier work
[4] = room temperature; cited from earlier work

SMILES | d(0.1) [1] | d(0.5) [1] | d(0.9) [1] | Spec. Pov. [1] | concentration of dissolved lovastatin ([2]; time 0 min) | concentration of dissolved lovastatin ([2]; time 1 min) | concentration of dissolved lovastatin ([2]; time 3 min) | concentration of dissolved lovastatin ([2]; time 5 min) | concentration of dissolved lovastatin ([2]; time 10 min) | concentration of dissolved lovastatin ([2]; time 30 min) | concentration of dissolved lovastatin ([2]; time 50 min) | time to peak concentration in blood of active form ([3]; post-dose) | share of total dose that crosses the intestinal membrane [3] | volume of water required to dissolve 20 mg [4]
CC[C@H](C)C(=O)O[C@H]1C[C@@H](C)C=C2C=C[C@H](C)[C@H](CC[C@@H]3C[C@@H](O)CC(=O)O3)[C@H]21 [A, lovastatin] | 1.6 μm | 6 μm | 22 μm | 3.3 m^2/g | 0 ng/mL | 650 ng/mL | 770 ng/mL | 780 ng/mL | 810 ng/mL | 880 ng/mL | 900 ng/mL |  |  | 
CC[C@H](C)C(=O)O[C@H]1C[C@@H](C)C=C2C=C[C@H](C)[C@H](CC[C@@H]3C[C@@H](O)CC(=O)O3)[C@H]21 [B, lovastatin] | 1.4 μm | 7.9 μm | 31 μm | 2.2 m^2/g | 0 ng/mL | 500 ng/mL | 680 ng/mL | 710 ng/mL | 780 ng/mL | 870 ng/mL | 950 ng/mL |  |  | 
CC[C@H](C)C(=O)O[C@H]1C[C@@H](C)C=C2C=C[C@H](C)[C@H](CC[C@@H]3C[C@@H](O)CC(=O)O3)[C@H]21 [C, lovastatin] | 17 μm | 54 μm | 163 μm | 0.7 m^2/g | 0 ng/mL | 250 ng/mL | 300 ng/mL | 400 ng/mL | 560 ng/mL | 820 ng/mL | 940 ng/mL |  |  | 
CC[C@H](C)C(=O)O[C@H]1C[C@@H](C)C=C2C=C[C@H](C)[C@H](CC[C@@H]3C[C@@H](O)CC(=O)O3)[C@H]21 [Example 4, lovastatin] |  |  | 163 μm |  |  |  |  |  |  |  |  |  |  | 
CC[C@H](C)C(=O)O[C@H]1C[C@@H](C)C=C2C=C[C@H](C)[C@H](CC[C@@H]3C[C@@H](O)CC(=O)O3)[C@H]21 [Example 5, lovastatin] |  |  | 77 μm | 1.3 m^2/g |  |  |  |  |  |  |  |  |  | 
CC[C@H](C)C(=O)O[C@H]1C[C@@H](C)C=C2C=C[C@H](C)[C@H](CC[C@@H]3C[C@@H](O)CC(=O)O3)[C@H]21 [Example 6, lovastatin] |  |  | 22 μm |  |  |  |  |  |  |  |  |  |  | 
CC[C@H](C)C(=O)O[C@H]1C[C@@H](C)C=C2C=C[C@H](C)[C@H](CC[C@@H]3C[C@@H](O)CC(=O)O3)[C@H]21 [lovastatin] |  |  |  |  |  |  |  |  |  |  |  | 2.8 h | 31% | about 15 litres
